Results taken from PubChem BioAssay (NCI).
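Step 1: Grow cells in 96-well plates. Step 2: Expose to compound for 48 hours at 5 concentrations. Step 3: Interpolate endpoints linearly; if unreached, use highest concentration. Abbreviation: GI50, concentration required for 50% inhibition of growth. TGI denotes the concentration required for complete inhibition of growth.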

How the values were obtained:
Test in all cases: NCI-60 cell line screen, 48 h
OVCAR-3 ovarian = system: OVCAR-3 ovarian
KM12 colon = system: KM12 colon
SK-MEL-2 melanoma = system: SK-MEL-2 melanoma
HOP-62 NSCLC = system: HOP-62 NSCLC
CAKI-1 renal = system: CAKI-1 renal
COLO 205 colon = system: COLO 205 colon
NCI-H460 lung = system: NCI-H460 lung
SW-620 colon = system: SW-620 colon
T-47D breast = system: T-47D breast
NCI/ADR-RES ovarian = system: NCI/ADR-RES ovarian

| SMILES | TGI (OVCAR-3 ovarian) | TGI (KM12 colon) | TGI (SK-MEL-2 melanoma) | TGI (HOP-62 NSCLC) | TGI (CAKI-1 renal) | TGI (COLO 205 colon) | TGI (NCI-H460 lung) | TGI (SW-620 colon) | TGI (T-47D breast) | TGI (NCI/ADR-RES ovarian) | GI50 (OVCAR-3 ovarian) | GI50 (KM12 colon) | GI50 (SK-MEL-2 melanoma) | GI50 (CAKI-1 renal) | GI50 (COLO 205 colon) | GI50 (T-47D breast) | GI50 (NCI-H460 lung) | GI50 (NCI/ADR-RES ovarian) | GI50 (SW-620 colon) | GI50 (HOP-62 NSCLC) |
| --- | --- | --- | --- | --- | --- | --- | --- | --- | --- | --- | --- | --- | --- | --- | --- | --- | --- | --- | --- | --- |
| O=C(O)C(Br)Cc1ccc2c(c1)OCO2 (stereo not drawn) | > 100 µM | > 100 µM | > 100 µM | > 100 µM | > 100 µM | > 100 µM | > 100 µM | > 100 µM | – | – | – | – | – | – | – | – | – | – | – | – |
| COc1cc2c3c(c4cc(OC)c(OC)cc4c2cc1OC)[C@H](O)[C@@H]1CCCN1C3 | 1.18 µM | 1.52 µM | 0.234 µM | 0.57 µM | 2.3 µM | 0.154 µM | 0.72 µM | > 100 µM | 2.53 µM | 2.97 µM | – | – | – | – | – | – | – | – | – | – |
| CSc1sc(=S)sc1SC | > 100 µM | > 100 µM | > 31.6 µM | > 100 µM | > 100 µM | > 100 µM | > 100 µM | > 100 µM | – | 54.3 µM | – | – | – | – | – | – | – | – | – | – |
| COc1cc2c3c(n(C4CCNCC4)c(=O)c2cc1OC)-c1cc2c(cc1C3=O)OCO2 | 2.6 µM | 2.53 µM | > 100 µM | – | 1.6 µM | 2.33 µM | 0.276 µM | 1.95 µM | 2.38 µM | 4 µM | 1.2 µM | 1.11 µM | 20.1 µM | 0.295 µM | 0.986 µM | 0.395 µM | 0.119 µM | 0.823 µM | 0.225 µM | – |
| S=C1NN=C2C(=C3CCCC4C5CCCCC5N2C34)N1 (stereo not drawn) | > 100 µM | > 100 µM | – | > 100 µM | > 100 µM | > 100 µM | – | > 100 µM | > 100 µM | > 100 µM | – | – | – | – | – | – | – | – | – | – |
| C#C[C@@]1(O)[C@@H](CO)O[C@@H](n2cc(F)c3c(N)ncnc32)[C@@H]1O | > 100 µM | 24.9 µM | 2.87 µM | 7.79 µM | – | 1.3 µM | 10.2 µM | 2.9 µM | 0.77 µM | 11.3 µM | 1.11 µM | 0.502 µM | 0.446 µM | – | 0.263 µM | 0.214 µM | 0.231 µM | 0.306 µM | 0.159 µM | 0.571 µM |
| C[C@H](CCC1=NCCN1)[C@H]1CC[C@H]2[C@@H]3CC[C@@H]4C[C@H](O)CC[C@]4(C)[C@H]3CC[C@]12C | 38.4 µM | > 47.4 µM | 21.3 µM | 20.9 µM | 20.2 µM | 3.18 µM | > 33.9 µM | > 48.9 µM | > 51.8 µM | 39.5 µM | – | – | – | – | – | – | – | – | – | – |
| CCCCCCCCCCCCCCCCOCCCOP(=O)(O)C1CCCN(O)C1=O (stereo not drawn) | 16.4 µM | 11.3 µM | 24.6 µM | 18.6 µM | 6.18 µM | 13.3 µM | 4.51 µM | 22.3 µM | 27.5 µM | 25.6 µM | 2.77 µM | 0.572 µM | 5.95 µM | 2.09 µM | 0.548 µM | 6.15 µM | 0.375 µM | 4.02 µM | 1.47 µM | 0.837 µM |
| COc1ccc(/C(Cl)=C(\C=O)c2ccc(Cl)c(Cl)c2)cc1OC | 26.3 µM | – | 15 µM | 31.7 µM | 18.8 µM | 33.7 µM | 12.4 µM | 16.3 µM | – | – | – | – | – | – | – | – | – | – | – | – |
